In the SangsterLogP compilation:

Experiment: method code SF-AS, from DOI: 10.1897/1552-8618(1992)11[901:aapohp]2.0.co;2

Structure (SMILES)	logP
CCCCc1ccc(NC(C)=O)cc1	3.3
NC(=O)c1ccccc1C(F)(F)F	0.68
CC(=O)Nc1cc(F)cc(C(F)(F)F)c1Cl	2.86
CC(=O)Nc1cc(C)c(C)c(C)c1	2.5
CCCCc1ccc(NC(C)=O)c([N+](=O)[O-])c1	3.1
CC(=O)Nc1cc(Cl)c(F)c(Cl)c1F	2.9
CC(=O)Nc1cc(Cl)c(Cl)c(Cl)c1	3.76
CC(=O)Nc1cc(C(F)(F)F)c(Cl)cc1F	3.02
COc1ccc(OC)c(Cl)c1	2.69
CC(=O)Nc1c([N+](=O)[O-])cccc1[N+](=O)[O-]	0.56
CC(=O)Nc1cc(C(F)(F)F)c(Cl)cc1Cl	3.24
C=CCOc1cc(NC(C)=O)c(F)cc1Cl	2.76
CC(=O)Nc1ccc(Oc2ccccn2)cc1	1.57
NC(=O)c1c(Cl)cccc1[N+](=O)[O-]	0.12
COc1ccccc1F	2.14
CC(=O)Nc1cc(Cl)cc(C(F)(F)F)c1F	3.15
Cc1ccccc1C(N)=O	0.76
O=[N+]([O-])c1cc(C(F)(F)F)cc([N+](=O)[O-])c1Cl	2.5
CC(=O)Nc1ccccc1Oc1ccccc1	2.37
N#Cc1ccccc1C#N	0.99
CC(C)c1ccccc1[N+](=O)[O-]	3.34
CC(=O)Nc1cc(C(F)(F)F)cc(C(F)(F)F)c1	3.72
NC(=O)c1c(F)cccc1Br	0.63
CCc1ccccc1C(N)=O	1.17

Structure (SMILES)	logP
CC(=O)Nc1cc(C(F)(F)F)cc(Cl)c1Cl	3.27
NC(=O)c1ccccc1I	0.93
CC(=O)Nc1cc(Cl)cc(Cl)c1	3.17
COc1cccc([N+](=O)[O-])c1C(N)=O	-0.26
CC(=O)Nc1cc(C)cc(C)c1	2.17
CC(C)c1ccccc1C(N)=O	1.39
CC(=O)Nc1cccc([N+](=O)[O-])c1	1.47
CC(=O)Nc1c(C)cc(C)cc1[N+](=O)[O-]	1.18
COc1cccc([N+](=O)[O-])c1C	2.68
O=[N+]([O-])c1ccc(Cl)cc1[N+](=O)[O-]	2.18
COc1ccc(C)c(OC)c1	2.76
CC(=O)Nc1c(F)c(F)c(F)c(F)c1F	1.7
CC(=O)Nc1ccc(OC(F)(F)F)cc1	2.62
CC(=O)Nc1cc(Cl)cc(C(F)(F)F)c1Cl	3.27
CC(=O)Nc1ccccc1-c1ccccc1	2.02
CC(=O)Nc1cc(C(F)(F)F)cc(C(F)(F)F)c1Br	3.51
CCc1ccccc1OC	3.18
CC(=O)Nc1cc(C(F)(F)F)c(F)cc1F	2.34
CC(=O)Nc1cc(C(F)(F)F)ccc1F	2.24
CCCCc1ccc(NC(C)=O)cc1C	3.64
CC(=O)Nc1c(C(C)C)cccc1C(C)C	2.41
Cc1cccc(C)c1C(N)=O	0.9
COc1cccc(OC)c1C	2.87
COc1cccc(OC)c1C(N)=O	-0.22

Second part, the compound after the results:

logP	Structure (SMILES)
1	NC(=O)c1c(Cl)cccc1Br
3.02	COc1c(C)cccc1C
0.89	Cc1cccc(Cl)c1C(N)=O
1.85	CCc1cccc(CC)c1NC(C)=O
1.09	COc1ccc(NC(C)=O)c([N+](=O)[O-])c1
3.1	CCCCc1ccc(NC(C)=O)c(C)c1
2.09	CC(=O)Nc1cccc(Cl)c1Cl
2.19	CC(=O)Nc1cc(Cl)ccc1Cl
1.91	CC(=O)Nc1ccc(Cl)cc1F
1.83	CC(=O)Nc1cccc(Cl)c1F
1.47	CC(=O)Nc1cc(C)ccc1C
1.22	CC(=O)Nc1c(C)cccc1Cl
0.69	CC(=O)Nc1c(F)cccc1F
1.32	CC(=O)Nc1c(Cl)cccc1Cl
1.07	CC(=O)Nc1c(C)cccc1C
1.41	CCc1cccc(C)c1NC(C)=O
2.72	CCCc1cc(NC(C)=O)ccc1OC
1.46	CC(=O)Nc1ccc(C)cc1C
1.98	CC(=O)Nc1ccc(Cl)cc1C(F)(F)F
1.03	CC(=O)Nc1ccccc1F

logP	Structure (SMILES)
0.49	NC(=O)c1c(F)cccc1Cl
2.69	CC(=O)Nc1ccc(C)c(Cl)c1
1.62	CC(=O)Nc1ccccc1I
2.1	CCc1cccc(C(C)C)c1NC(C)=O
1.35	CC(=O)Nc1cccc(C)c1C
1.82	CC(=O)Nc1cccc(Cl)c1C
2.1	CC(=O)Nc1ccc(C)c(C)c1
2.18	CC(=O)Nc1ccc(Cl)cc1Cl
1.28	COc1c(C)cccc1NC(C)=O
1.76	CC(=O)Nc1ccc(C)c(C)c1C
0.61	CC(=O)Nc1c(C)cccc1[N+](=O)[O-]
1.49	CC(=O)Nc1ccc(C)cc1[N+](=O)[O-]
1.85	CC(=O)Nc1cc(Cl)ccc1C
3.33	CC(=O)Nc1ccc(Cl)c(C(F)(F)F)c1
1.68	COc1c(Cl)cccc1NC(C)=O
0.59	COc1cccc(Cl)c1C(N)=O
2.88	CC(=O)Nc1ccc(Cl)c(Cl)c1Cl
1.78	CC(=O)Nc1ccc(Cl)cc1[N+](=O)[O-]
1.13	COc1cccc(NC(C)=O)c1C
